Structures are written as SMILES. Where a name gives a salt, the structure may show the parent alone.

The assay concerns the target T1, mGlyT-1b (Mus musculus, UniProt P28571).
T1 construct: host or cells: Flp-in-CHO
T1 sequence (P28571 1-651 isoform P28571-2): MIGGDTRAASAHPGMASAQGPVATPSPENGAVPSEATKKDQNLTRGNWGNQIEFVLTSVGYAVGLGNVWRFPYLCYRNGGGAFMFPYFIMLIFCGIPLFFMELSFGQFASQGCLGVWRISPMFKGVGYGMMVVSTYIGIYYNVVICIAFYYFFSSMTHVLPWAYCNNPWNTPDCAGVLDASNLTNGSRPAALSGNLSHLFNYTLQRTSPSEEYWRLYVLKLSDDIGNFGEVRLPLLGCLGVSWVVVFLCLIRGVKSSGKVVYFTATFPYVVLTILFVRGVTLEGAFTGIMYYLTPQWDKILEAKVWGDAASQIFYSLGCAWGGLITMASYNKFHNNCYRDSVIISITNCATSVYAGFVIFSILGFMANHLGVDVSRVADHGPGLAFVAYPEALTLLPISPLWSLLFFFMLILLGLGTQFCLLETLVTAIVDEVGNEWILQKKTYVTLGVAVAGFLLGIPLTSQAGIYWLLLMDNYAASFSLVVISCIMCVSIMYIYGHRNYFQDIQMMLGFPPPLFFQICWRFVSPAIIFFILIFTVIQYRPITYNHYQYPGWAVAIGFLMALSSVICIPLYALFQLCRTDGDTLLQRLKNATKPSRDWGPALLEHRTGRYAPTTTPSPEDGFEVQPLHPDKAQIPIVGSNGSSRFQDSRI
As to the kind of experiment: Glycine uptake inhibition assay (mGlyT-1b). In kind it is cell-based. The following applies: [3H]-glycine uptake, Flp-in-CHO cells stably transfected with mGlyT1b cDNA, 20 min preincubation at 22° C. The protocol: Nutrient mixture F-12 (Gibco Life-technologies), fetal bovine serum (FBS) 5%, (Gibco life technologies), Penicillin/Streptomycin 1% (Gibco life technologies), Hygromycin 0.6 mg/ml (Gibco life technologies), Glutamine 1 mM Gibco life technologies)
150 mM NaCl, 10 mM Hepes-Tris, pH 7.4, 1 mM CaCl2, 2.5 mM KCl, 2.5 mM MgSO4, 10 mM (+) D-glucose.
Flp-in™-CHO (Invitrogen Cat n° R758-07) cells stably transfected with mGlyT1b cDNA.
Glycine Uptake Inhibition Assay (mGlyT-1b)
On day 1 mammalian cells, (Flp-in™-CHO), transfected with mGlyT-1b cDNA, were plated at the density of 40,000 cells/well in complete F-12 medium, without hygromycin in 96-well culture plates. On day 2, the medium was aspirated and the cells were washed twice with uptake buffer (UB). The cells were then incubated for 20 min at 22° C. with either (i) no potential competitor, (ii) 10 mM non-radioactive glycine, (iii) a concentration of a potential inhibitor. A range of concentrations of the potential inhibitor was used to generate data for calculating the concentration of inhibitor resulting in 50% of the effect (e.g. IC50, the concentration of the competitor inhibiting glycine uptake of 50%). A solution was then immediately added containing [^3H]-glycine 60 nM (11-16 Ci/mmol) and 25 μM non-radioactive glycine. The plates were incubated with gentle shaking and the reaction was stopped by aspiration of the mixture and washing (three times) with ice-cold UB. The cells were lysed with scintillation liquid, shaken 3 hours and the radioactivity in the cells was counted using a scintillation counter.
For the molecule `COc1cc(C(F)(F)F)cc(SC)c1C(=O)N[C@@]1(c2ccccc2)C[C@H](C)CN(C)C1` (mixture of isomers) [Example 85, N-((3R,5SR)-1,5-Dimethyl-3-phenyl-piperidin-3-yl)-2-methoxy-6-methylsulfanyl-4-trifluoromethyl-benzamide hydrochloride], the IC50 was 31.3 nM.

`CCc1cc(C(F)(F)F)ccc1C(=O)NC1(c2ccccc2)CCCN(C)C1` (racemic) [Example 4, rac-2-Ethyl-N-(1-methyl-3-phenyl-piperidin-3-yl)-4-trifluoromethyl-benzamide] registered an IC50 of 26.4 nM.

The molecule `CN1CCCC(NC(=O)c2c(F)cc(C(F)(F)F)cc2C(F)(F)F)(c2ccccc2)C1` (racemic) [Example 5, rac-2-Fluoro-N-(1-methyl-3-phenyl-piperidin-3-yl)-4,6-bis-trifluoromethyl-benzamide] showed an IC50 of 107 nM.

As for `COc1cc(C(F)(F)F)cc(Br)c1C(=O)NC1(c2ccccc2)CCCN(C)C1` (racemic) [Example 7, rac-2-Bromo-6-methoxy-N-(1-methyl-3-phenyl-piperidin-3-yl)-4-trifluoromethyl-benzamide], the IC50 came out at 85.4 nM. This IC50 and that of the molecule before are within 1.5-fold of each other.

Take `COc1cc(C(F)(F)F)cc(SC)c1C(=O)NC1(c2ccccc2)CCCN(C)C1C` (racemic) [Example 11, rac-N-(1,2-Dimethyl-3-phenyl-piperidin-3-yl)-2-methoxy-6-methylsulfanyl-4-trifluoromethyl-benzamide]: half-maximal inhibition (IC50) required 20.2 nM.

Consider `CN1CCCC(NC(=O)c2ccc(C(F)(F)F)cc2C2CC2)(c2ccccc2)C1` (racemic) [Example 13, rac-2-Cyclopropyl-N-(1-methyl-3-phenyl-piperidin-3-yl)-4-trifluoromethyl-benzamide], for which 13 nM corresponded to half-maximal inhibition (IC50).

In turn, `COc1cc(C(F)(F)F)cc(C(F)(F)F)c1C(=O)NC1(c2ccccc2)CCCN(C)C1` (racemic) [Example 16, rac-2-Methoxy-N-(1-methyl-3-phenyl-piperidin-3-yl)-4,6-bis-trifluoromethyl-benzamide] displayed an IC50 of 138 nM. Against the preceding molecule, the IC50 is about 11-fold higher.

Molecule `COc1cc(C(F)(F)F)cc(SC)c1C(=O)NC1(c2ccccc2)CCCN(C)C1` (racemic) [Example 18, rac-2-Methoxy-N-(1-methyl-3-phenyl-piperidin-3-yl)-6-methylsulfanyl-4-trifluoromethyl-benzamide] registered an IC50 of 24.4 nM.

`CSc1cc(C(F)(F)F)ccc1C(=O)NC1(c2ccccc2)CCCN(C)C1` (racemic) [Example 19, rac-N-(1-Methyl-3-phenyl-piperidin-3-yl)-2-methylsulfanyl-4-trifluoromethyl-benzamide] had an IC50 of 67.2 nM.

As for `CCc1cc(C(F)(F)F)cc(C(F)(F)F)c1C(=O)NC1(c2ccccc2)CCCN(C)C1` (racemic) [Example 25, rac-2-Ethyl-N-(1-methyl-3-phenyl-piperidin-3-yl)-4,6-bis-trifluoromethyl-benzamide], the IC50 was 126 nM.

In turn, `COc1cc(C(F)(F)F)cc(C(F)(F)F)c1C(=O)NC1(c2ccc(F)cc2)CCCN(C)C1` (racemic) [Example 26, rac-N-[3-(4-Fluoro-phenyl)-1-methyl-piperidin-3-yl]-2-methoxy-4,6-bis-trifluoromethyl-benzamide] displayed an IC50 of 59.3 nM.

In turn, `COc1cc(C(F)(F)F)cc(SC)c1C(=O)NC1(c2ccc(F)cc2)CCCN(C)C1` (racemic) [Example 27, rac-N-[3-(4-Fluoro-phenyl)-1-methyl-piperidin-3-yl]-2-methoxy-6-methylsulfanyl-4-trifluoromethyl-benzamide] showed an IC50 of 26.2 nM.

Molecule `COc1cc(C(F)(F)F)cc(SC)c1C(=O)NC1(c2ccc(Cl)cc2)CCCN(C)C1` (racemic) [Example 28, rac-N-[3-(4-Chloro-phenyl)-1-methyl-piperidin-3-yl]-2-methoxy-6-methylsulfanyl-4-trifluoromethyl-benzamide] displayed an IC50 of 27.7 nM.

As to `CN1CCCC(NC(=O)c2ccc(C(F)(F)F)cc2OC(F)F)(c2ccccc2)C1` (racemic) [Example 39, rac-2-Difluoromethoxy-N-(1-methyl-3-phenyl-piperidin-3-yl)-4-trifluoromethyl-benzamide], the IC50 stood at 184 nM.

For the molecule `COc1cc(C(F)(F)F)cc(SC)c1C(=O)NC1(c2cccc(Cl)c2)CCCN(C)C1` (racemic) [Example 45, rac-N-[3-(3-Chloro-phenyl)-1-methyl-piperidin-3-yl]-2-methoxy-6-methylsulfanyl-4-trifluoromethyl-benzamide hydrochloride], the IC50 turned out to be 24.5 nM.

`COc1ccc(C2(NC(=O)c3c(OC)cc(C(F)(F)F)cc3SC)CCCN(C)C2)cc1` (racemic) [Example 46, rac-2-Methoxy-N-[3-(4-methoxy-phenyl)-1-methyl-piperidin-3-yl]-6-methylsulfanyl-4-trifluoromethyl-benzamide]: the IC50 came out at 169 nM.

Molecule `COc1cc(C(F)(F)F)cc(SC)c1C(=O)NC1(c2ccc(F)cn2)CCCN(C)C1` (racemic) [Example 47, rac-N-(5-Fluoro-1′-methyl-1′,4′,5′,6′-tetrahydro-2′H-[2,3′]bipyridinyl-3′-yl)-2-methoxy-6-methylsulfanyl-4-trifluoromethyl-benzamide] returned an IC50 of 181 nM. This IC50 and that of the molecule before are within 1.5-fold of each other.

Molecule `COc1cc(C(F)(F)F)cc(SC)c1C(=O)NC1(c2ccccc2)CC(F)CN(C)C1` (racemic) [Example 48, rac-N-(5-Fluoro-1-methyl-3-phenyl-piperidin-3-yl)-2-methoxy-6-methylsulfanyl-4-trifluoromethyl-benzamide] came in with an IC50 of 197 nM.

Regarding `COc1cc(C(F)(F)F)cc(SC)c1C(=O)NC1(c2ccccc2)CC(O)CN(C)C1` (racemic) [Example 51, rac-N-(5-Hydroxy-1-methyl-3-phenyl-piperidin-3-yl)-2-methoxy-6-methylsulfanyl-4-trifluoromethyl-benzamide], half-maximal inhibition (IC50) required 58.2 nM.

On to `COc1cc(C(F)(F)F)cc(SC)c1C(=O)NC1(c2ccccc2)CCCN(C(C)C)C1` (racemic) [Example 55, rac-N-(1-Isopropyl-3-phenyl-piperidin-3-yl)-2-methoxy-6-methylsulfanyl-4-trifluoromethyl-benzamide; hydrochloride], for which the 50% inhibitory concentration (IC50) is 77.7 nM.

Regarding `COc1cc(C(F)(F)F)cc(SC)c1C(=O)NC1(C2CCCCC2)CCCN(C)C1` (racemic) [Example 58, rac-N-(3-Cyclohexyl-1-methyl-piperidin-3-yl)-2-methoxy-6-methylsulfanyl-4-trifluoromethyl-benzamide], inhibition was half-maximal at 156 nM (IC50). This IC50 lies about 2-fold higher than the previous one.

`CN1CCCC(NC(=O)c2ccc(C(F)(F)F)cc2C2CCC2)(c2ccccc2)C1` (racemic) [Example 66, rac-2-Cyclobutyl-N-(1-methyl-3-phenyl-piperidin-3-yl)-4-trifluoromethyl-benzamide hydrochloride]: 243 nM corresponded to half-maximal inhibition (IC50).

In turn, `COc1cc(C(F)(F)F)cc(SC)c1C(=O)NC1(c2ccc(F)cc2F)CCCN(C)C1` (racemic) [Example 67, rac-N-[3-(2,4-Difluoro-phenyl)-1-methyl-piperidin-3-yl]-2-methoxy-6-methylsulfanyl-4-trifluoromethyl-benzamide] yielded an IC50 of 129 nM.

Consider `COc1cc(C(F)(F)F)cc(SC)c1C(=O)NC1(c2ccccc2F)CCCN(C)C1` (racemic) [Example 68, rac-N-[3-(2-Fluoro-phenyl)-1-methyl-piperidin-3-yl]-2-methoxy-6-methylsulfanyl-4-trifluoromethyl-benzamide], for which the IC50 came to 175 nM.

Turning to `COc1cc(C(F)(F)F)cc(SC)c1C(=O)NC1(c2cc(F)ccc2F)CCCN(C)C1` (racemic) [Example 69, rac-N-[3-(2,5-Difluoro-phenyl)-1-methyl-piperidin-3-yl]-2-methoxy-6-methylsulfanyl-4-trifluoromethyl-benzamide], the IC50 was 117 nM.

With `CC(C)c1cc(C(F)(F)F)ccc1C(=O)NC1(c2ccccc2)CCCN(C)C1` (racemic) [Example 70, rac-2-Isopropyl-N-(1-methyl-3-phenyl-piperidin-3-yl)-4-trifluoromethyl-benzamide hydrochloride], 197 nM corresponded to half-maximal inhibition (IC50).

The IC50 is the concentration that gives 50% inhibition.

Source of the values: US9067911B2, “Piperidine derivatives” (Hoffmann-La Roche Inc., priority 2009, dated 2015).
